Assay results: ChEMBL document CHEMBL4043233, “A structural investigation of FISLE-412, a peptidomimetic compound derived from saquinavir that targets lupus autoantibodies” (Bioorg Med Chem Lett, 2017)
Calls of active or inactive are those of the source. The rule behind the calls is not given here.

How the values were obtained:
[1] = (§1) Inhibition of D-DWEYS binding to mouse anti-dsDNA monoclonal antibody R4A pretreated for 1 hr followed by D-DWEYS peptide addition measured after 1 hr by ELISA
Mus musculus [2] = species on record: Mus musculus; test: Inhibition of mouse glomerular binding to mouse anti-dsDNA monoclonal antibody R4A at 50 uM pretreated for 1 hr followed by glomerular addition by microscopic analysis
Mus musculus [3] = species on record: Mus musculus; test: as §1

| IC50 ([1]; read-out: IC50) [µM] | IC50 [1] | SMILES | also measured |
| --- | --- | --- | --- |
| 7.3 | – | CC(C)(C)NC[C@@H]1CC2CCCCC2CN1C[C@@H](O)[C@H](Cc1ccccc1)NC[C@H](CCN)NC(=O)c1ccc2ccccc2n1 (stereo partly drawn) | – |
| 3.7 | – | CC(C)(C)NC[C@@H]1CC2CCCCC2CN1C[C@@H](O)[C@H](Cc1ccccc1)NC[C@H](CCN)NC(=O)c1ccc2ccccc2c1 (stereo partly drawn) | inhibition (Mus musculus [2]): Active; inhibition (Mus musculus [3]): Dose-dependent effect |
| 6.9 | – | CC(C)(C)NC[C@@H]1CC2CCCCC2CN1C[C@@H](O)[C@H](Cc1ccccc1)NC[C@H](CCN)NCC1CCc2ccccc2N1 (stereo partly drawn) | – |
| – | Not Active | NCC[C@@H](CN[C@H](CO)Cc1ccccc1)NCC1CCc2ccccc2N1 (stereo partly drawn) | – |
| > 100 | – | CC(C)(C)NC(=O)[C@@H]1CC2CCCCC2CN1C[C@@H](O)[C@H](Cc1ccccc1)NC(=O)c1ccc2ccccc2c1 (stereo partly drawn) | – |
| 10 | – | CC(C)(C)NC[C@@H]1CC2CCCCC2CN1C[C@@H](O)[C@H](Cc1ccccc1)NC[C@H](CCN)NC(=O)C1CCCCN1 (stereo partly drawn) | – |
| – | Not Active | OCC1Nc2ccccc2CC1O (stereo not drawn) | – |
| – | Not Active | NCC[C@@H](CN[C@@H](Cc1ccccc1)[C@H](O)CN1CCOCC1)NC(=O)c1ccc2ccccc2c1 | – |
| 19.7 | – | CC(C)(C)NC[C@@H]1CC2CCCCC2CN1C[C@@H](O)[C@H](Cc1ccccc1)NC(=O)[C@H](CCN)NC(=O)c1nc2ccccc2cc1O (stereo partly drawn) | – |
| 4.5 | – | CC(C)(C)NC[C@@H]1CC2CCCCC2CN1C[C@@H](O)[C@H](Cc1ccccc1)NC[C@H](CCN)NCC1Nc2ccccc2CC1O (stereo partly drawn) | – |
| 5.8 | – | CC(C)(C)NC[C@@H]1CC2CCCCC2CN1C[C@@H](O)[C@H](Cc1ccccc1)NC(=O)c1ccc2ccccc2n1 (stereo partly drawn) | inhibition (Mus musculus [2]): Active; inhibition (Mus musculus [3]): Dose-dependent effect |
| 27.3 | – | CC(C)(C)NC[C@@H]1CC2CCCCC2CN1C[C@@H](O)[C@H](Cc1ccccc1)NC[C@@H](N)CCN (stereo partly drawn) | – |
| 12.5 | – | CC(C)(C)NC[C@@H]1CC2CCCCC2CN1C[C@@H](O)[C@H](Cc1ccccc1)NC[C@H](CCN)NC(=O)c1ccccn1 (stereo partly drawn) | – |
| 6.8 | – | CC(C)(C)NC[C@@H]1CC2CCCCC2CN1C[C@@H](O)[C@H](Cc1ccccc1)NC(=O)c1ccc2ccccc2c1 (stereo partly drawn) | – |
| – | – | CC(C)(C)NC[C@@H]1CC2CCCCC2CN1C[C@@H](O)[C@@H](N)Cc1ccccc1 (stereo partly drawn) | inhibition (Mus musculus [3]; concentration not given here): < 20% |
| – | Not Active | CC(C)(C)NC(=O)[C@@H]1CC2CCCCC2CN1C[C@@H](O)[C@H](Cc1ccccc1)NC(=O)[C@H](CCN)NCc1ccc2ccccc2n1 (stereo partly drawn) | – |
| – | Not Active | O=C(O)c1ccc2ccccc2n1 [QUINALDIC ACID] | – |
| 88.7 | – | CC(C)(C)NC(=O)[C@@H]1CC2CCCCC2CN1C[C@@H](O)[C@H](Cc1ccccc1)NC(=O)c1ccc2ccccc2n1 (stereo partly drawn) | – |

| SMILES | IC50 ([1]; read-out: IC50) [µM] | IC50 [1] | also measured |
| --- | --- | --- | --- |
| CC(C)(C)NC[C@@H]1CC2CCCCC2CN1 (stereo partly drawn) | – | Not Active | – |
